Assay results as given in patent US20190388411A1, “NSAID ADMINISTRATION AND RELATED COMPOSITIONS, METHODS AND SYSTEMS” (Alfasigma S.p.A., priority 2013, published 2019).
Marks after values point to notes of the source that are not given here.

What was measured:
[1] = Blood hemoglobin levels in indomethacin-induced enteropathy in rats (Example 16); format: in vivo, male Albino Sprague Dawley rats
Procedure: (§1) Twenty four hours after the last dose, the rats were euthanized and samples of blood were collected for the assessment of hemoglobin levels.
Hemoglobin analysis was performed on rat blood samples collected as reported above, by means of Quantichrom Hemoglobin assay kit (Bioassay Systems, Hayward, Calif., USA) and expressed as g/dL.

[2] = tested on: myeloperoxidase (MPO); assay: Tissue myeloperoxidase (MPO) levels in jejunum and ileum, ELISA (Example 16); format: in vivo, male Albino Sprague Dawley rats; conditions: rats; indomethacin […] BID 14 days, alone or with gastroresistant rifaximin 25 or 50 mg/kg BID or rifaximin polymorph alpha 50 mg/kg BID
Procedure: (§2) The whole intestinal tract was removed and processed for the evaluation of tissue myeloperoxidase (MPO) levels and histological analysis of intestinal damage in jejunum and ileum.
Specimens of intestinal tissues (30 mg) were homogenized on ice with a polytron homogenizer (QIAGEN, Milan, Italy) in 0.6 mL of ice-cold lysis buffer (200 mM NaCl, 5 mM EDTA, 10 mM Tris, 10% glycerine, 1 mM PMSF, 1 μg/ml leupeptin and 28 μg/ml aprotinin (pH 7.4). The homogenate was centrifuged 2 times at 4° C. for 15 min at 1.500 g. The supernatant was diluted 1:5 and used for determination of MPO concentration by means of enzyme-linked immunosorbent assay (ELISA) (Hycult Biotech, Uden, Netherlands). All samples were assayed within 2 day after collection. The results were expressed as nanograms of MPO per milligram of intestinal tissue.

[3] = tested on: indomethacin - induced microscopic intestinal damage; assay: Histological analysis of intestinal damage in jejunum and ileum (Example 16); format: in vivo, male Albino Sprague Dawley rats; conditions: rats; indomethacin […] BID 14 days, alone or with gastroresistant rifaximin 25 and 50 mg/kg BID or rifaximin polymorph alpha 50 mg/kg BID
Procedure: as §2
(§3) Pharmacol. Ther. 1993; 7:29-39. Upon removal, the whole intestinal tract was immediately injected with 10% formalin and left in the same fixative solution. After 30 min, it was opened along the anti-mesenteric border, cleaned of fecal content and fixed in 10% formalin for 24 h. Tissue samples were taken as described below and the full length of small intestine was measured.
In particular the following tissue samples were taken • Ileum: 1 cm of tissue proximal to the ileo-cecal valve was discarded and two specimens of 1.5-2 cm of ileum were taken at this edge as well as 5 cm away from the first ileum sample • Proximal jejunum: two specimens of 1.5-2 cm were taken 5 cm away from both the proximal and distal end of the 37.5% of the small intestine total length. • Distal jejunum: two specimens of 1.5-2 cm were taken 5 cm away from both the proximal and distal end of 81% of small intestine's total length.
After fixation, tissues were embedded into paraffin blocks and were cut into consecutive serial 3-μm sections for staining with hematoxylin and eosin. Histological damage was assessed by two observers, blind to the treatment. Each section was given a score of lesion (Type 1 to 3) (TABLE 23).
Quantitative assessment of histological damage was expressed as percentage of the total length of lesions over the total length of the histological section.

[4] = Mortality in indomethacin- and diclofenac-induced enteropathy in rats (Example 17); conditions: 14 days, indomethacin […] BID, diclofenac 4 mg/kg BID, omeprazole 0.7 mg/kg/day, gastroresistant rifaximin 50 mg/kg BID, as named in the label
Procedure: (§4) A total of one hundred forty two (142) male Albino Sprague Dawley rats, 500 to 600 g body weight (40-week old) were assessed.
(§5) Group 1: ten animals treated with drug vehicle for 14 days (normal controls).
(§6) Group 6: twelve omeprazole-treated animals co-treated with gastroresistant rifaximin (50 mg/kg BID) for 14 days (omeprazole controls)
(§7) The enteropathy induced using diclofenac was carried out in the groups 8 to 11 as follows:
(§8) Group 8: fifteen animals treated with diclofenac 4 mg/kg BID (diclofenac ulcerated control
(§9) Group 9: fifteen animals treated with diclofenac 4 mg/kg BID and omeprazole 0.7 mg/kg once daily (diclofenac and omeprazole ulcerated control)
(§10) Group 10: twelve diclofenac-treated animals co-treated with gastroresistant rifaximin (50 mg/kg BID) for 14 days
(§11) Group 11: twelve diclofenac- and omeprazole-treated animals co-treated with gastroresistant rifaximin (50 mg/kg BID) for 14 days
(§12) Groups 1 to 11 were treated as follows:
(§13) Group 1 received 1% methylcellulose (0.3 ml/rat) and 1% methylcellulose (1 ml/rat) for 14 days.
(§14) Group 6 received gastroresistant rifaximin (50 mg/kg; 12 rats/group) suspended in 1% methylcellulose (1 ml/rat), twice daily, 1 hour before omeprazole 0.7 mg/kg once daily
(§15) Group 8 non-fasted rats were treated for 14 days with diclofenac 4 mg/kg BID by intragastric route, suspended in 1% methylcellulose and administered in a volume of 0.3 ml/rat.
(§16) Group 9 non-fasted rats were treated for 14 days with diclofenac 4 mg/kg BID, plus omeprazole 0.7 mg/kg once daily, by intragastric route, suspended in 1% methylcellulose and administered in a volume of 0.3 ml/rat.
(§17) Group 10 received gastroresistant rifaximin (50 mg/kg; 12 rats/group) suspended in 1% methylcellulose (1 ml/rat), twice daily, 1 hour before diclofenac administration
(§18) Group 11 received gastroresistant rifaximin (50 mg/kg; 12 rats/group) suspended in 1% methylcellulose (1 ml/rat), twice daily, 1 hour before diclofenac administration plus omeprazole 0.7 mg/kg once daily.

[5] = Blood hemoglobin levels in indomethacin- and diclofenac-induced enteropathy in rats (Example 17); format: in vivo, male Albino Sprague Dawley rats; conditions: 14 days; for Blood hemoglobin levels (in words): indomethacin […] BID, diclofenac 4 mg/kg BID, omeprazole 0.7 mg/kg/day, gastroresistant rifaximin 50 mg/kg BID, as named in the label; for Hemoglobin (g/dl): indomethacin […] BID or diclofenac 4 mg/kg BID
Procedure: as §4, §5, §6, §7, §8, §9, §10, §11, §12, §13, §14, §15, §16, §17, §18, §1
Haemoglobin analysis was performed on blood samples collected as reported above, using a Quantichrom Hemoglobin assay kit (Bioassay Systems, Hayward, Calif., USA) and expressed as g/dL.

[6] = tested on: malondialdehyde (MDA); assay: Tissue malondialdehyde (MDA) levels in jejunum and ileum, colorimetric assay (Example 17); format: in vivo, male Albino Sprague Dawley rats; conditions: rats, indomethacin […] BID or diclofenac 4 mg/kg BID, 14 days
Procedure: (§19) (indomethacin plus omeprazole ulcerated controls)
as §12
(§20) The whole intestinal tract was removed and intestinal tissue specimens processed for the evaluation of tissue myeloperoxidase (MPO) levels, an index of tissue neutrophils infiltration, of tissue malondialdehyde (MDA) levels, an index of lipid peroxidation and histological analysis of intestinal damage in jejunum and ileum.
MDA concentration in intestinal tissues was determined to obtain quantitative estimates of membrane lipid peroxidation as described by Fornai et al., NSAID-Induced Enteropathy: Are the Currently Available Selective COX-2 Inhibitors All the Same? J Pharmacol Exp Ther January 2014 348:86-95. For this purpose, intestinal tissue was excised, weighed, minced by forceps, homogenized in 2 ml of cold buffer consisting of Tris-HCl 20 mM, at pH 7.4, using a polytron homogenizer (QIAGEN, Milan, Italy), and centrifuged at 1,500 g for 10 min at 4° C. Aliquots of supernatants were then used for subsequent assay procedures. Mucosal MDA concentrations were estimated using a colorimetric assay kit (Cayman Chemical, Ann Arbor, Mich., U.S.A.). Results were expressed as nanomoles of MDA per milligram of intestinal tissue.

[7] = tested on: indomethacin- and diclofenac-induced small intestinal damage; assay: Microscopical analysis of small intestinal damage in jejunum and ileum (Example 17); format: in vivo, male Albino Sprague Dawley rats; conditions: rats, 14 days; for Ileum lesions type 1, 2 and 3 (in words) / Jejunal lesions type 1, 2 and 3 (in words): indomethacin […] BID, diclofenac 4 mg/kg BID, omeprazole 0.7 mg/kg/day, gastroresistant rifaximin 50 mg/kg BID, as named in the label; for Ileum Type 1 lesion (%) / Ileum Type 2 lesion (%) / Ileum Type 3 lesion (%) / Jejunum Type 1 lesion (%) / Jejunum Type 2 lesion (%) / Jejunum Type 3 lesion (%): indomethacin […] BID or diclofenac 4 mg/kg BID
Procedure: as §5, §6, §7, §8, §9, §10, §11, §12, §13, §14, §15, §16, §17, §18, §20
as §3, with “Upon” for “Pharmacol. Ther. 1993; 7:29-39. Upon”, “in order to rule out any bias:” for “and the full length of small intestine was measured.”
The full length of the small intestine was measured.
Sections of jejunum and ileum were embedded into paraffin blocks and cut into […] serial 7-8 μm sections. The slices were cut at two different points of the block: two on the surface and three at a deeper level. Each slice was placed on the slide for staining with haematoxylin and eosin.
The intestinal damage was classified as reported in Table 27 wherein reference is made with respect to the histological appearance of type 1, 2 and 3 lesions of jejunum and ileum to the illustration of FIG. 1
The statistical significance of data was evaluated by one way analysis of variance (ANOVA) followed by post hoc analysis by Student-Newman-Keuls test, and P values lower than 0.05 were considered significant. All statistical procedures were performed using GraphPad Prism 3.0 software (GraphPad Prism, San Diego, Calif., USA).

[8] = tested on: myeloperoxidase (MPO); assay: Tissue myeloperoxidase (MPO) levels in jejunum and ileum, ELISA (Example 17); format: in vivo, male Albino Sprague Dawley rats; conditions: rats, indomethacin […] BID or diclofenac 4 mg/kg BID, 14 days
Procedure: as §19, §12, §20
MPO was assessed as described by Fornai et al., NSAID-Induced Enteropathy: Are the Currently Available Selective COX-2 Inhibitors All the Same, J Pharmacol Exp Ther January 2014 348:86-95 and assumed as a quantitative index to estimate the degree of intestinal wall infiltration by polymorphonuclear cells.
Specimens of 30 mg intestinal tissues were homogenized on ice with a polytron homogenizer (QIAGEN, Milan, Italy) in 0.6 mL of ice-cold lysis buffer consisting of 200 mM NaCl, 5 mM EDTA, 10 mM Tris, 10% glycerine, 1 mM phenylmethylsulfonyl fluoride, 1 μg/ml leupeptin and 28 μg/ml aprotinin at pH 7.4. The homogenate was centrifuged 2 times at […] at 1.500 g. The supernatant was diluted 1:5 and used for determination of MPO concentration by means of enzyme-linked immunosorbent assay (ELISA). (Hycult Biotech, Uden, Netherlands). All samples were assayed as described in Example 15. The results were expressed as nanograms of MPO per milligram of intestinal tissue.

Row | Structure (SMILES) | Mortality (dead/treated animals) [4] | Blood hemoglobin levels (in words) [5] | Hemoglobin (g/dl) [5] | Ileum MDA (nmol/mg tissue) [6] | Jejunum MDA (nmol/mg tissue) [6] | Ileum lesions type 1, 2 and 3 (in words) [7] | Jejunal lesions type 1, 2 and 3 (in words) [7] | Ileum Type 1 lesion (%) [7] | Ileum Type 2 lesion (%) [7] | Ileum Type 3 lesion (%) [7] | Jejunum Type 1 lesion (%) [7] | Jejunum Type 2 lesion (%) [7] | Jejunum Type 3 lesion (%) [7] | other results
1 | COc1ccc2c(c1)c(CC(=O)O)c(C)n2C(=O)c1ccc(Cl)cc1 [Indomethacin, indomethacin] | 2/15 | significant decrease in blood haemoglobin concentration | 11.6* g/dl | 54.47* nmol/mg tissue | 66.15* nmol/mg tissue | occurrence of various degrees of type 1, 2 and 3 lesions in both jejunum and ileum | occurrence of various degrees of type 1, 2 and 3 lesions in both jejunum and ileum | 28.3* % | 11.8* % | 5.2* % | 36* % | 18* % | 4.6* % | Reduction in hemoglobin values ([1]; end of the treatment period (14 days), in respect to the control): about 20%; Blood hemoglobin concentration (in words) ([1]; indomethacin […] BID 14 days, alone or with gastroresistant rifaximin at both doses or rifaximin polymorph alpha 50 mg/kg BID): significant decrease in blood hemoglobin concentration; Ileum tissue MPO levels (in words) [2]: significant increase in tissue MPO levels; Jejunum tissue MPO levels (in words) [2]: significantly increased; Ileum type 1 lesions, microscopic assessment (in words) [3]: occurrence of type 1 and 2 lesions; Ileum type 2 lesions, microscopic assessment (in words) [3]: occurrence of type 1 and 2 lesions; Ileum type 3 lesions, microscopic assessment (in words) [3]: no significant differences were detected for type 3 lesions; Jejunum type 1 lesions, microscopic assessment (in words) [3]: occurrence of various degrees of type 1, 2 and 3 lesions; Jejunum type 2 lesions, microscopic assessment (in words) [3]: occurrence of various degrees of type 1, 2 and 3 lesions; Jejunum type 3 lesions, microscopic assessment (in words) [3]: occurrence of various degrees of type 1, 2 and 3 lesions; Ileum MDA (nmol/mg tissue) ([6]; listed as indomethacin): 54.47 nmol/mg tissue; Jejunum MDA (nmol/mg tissue) ([6]; listed as indomethacin): 66.15 nmol/mg tissue
2 | O=C(O)Cc1ccccc1Nc1c(Cl)cccc1Cl [Diclofenac, diclofenac] | 7/15 | significant decrease in blood haemoglobin concentration | 11.3* g/dl | 67.1* nmol/mg tissue | 69.44* nmol/mg tissue | occurrence of various degrees of type 1, 2 and 3 lesions in both jejunum and ileum | occurrence of various degrees of type 1, 2 and 3 lesions in both jejunum and ileum | 26* % | 8.8* % | 3* % | 24.6* % | 4.2* % | 0.8* % | Mortality (%) ([4]; listed as diclofenac): 46.7%; Ileum MPO (ng/mg tissue) [8]: 19.35* ng/mg tissue; Jejunum MPO (ng/mg tissue) [8]: 20.37* ng/mg tissue; Ileum MPO (ng/mg tissue) ([8]; listed as diclofenac): 19.35 ng/mg tissue; Jejunum MPO (ng/mg tissue) ([8]; listed as diclofenac): 20.37 ng/mg tissue; Ileum MDA (nmol/mg tissue) ([6]; listed as diclofenac): 67.1 nmol/mg tissue; Jejunum MDA (nmol/mg tissue) ([6]; listed as diclofenac): 69.44 nmol/mg tissue
